In patent publication US20060045953A1 (priority 2004, published 2006):
pEC50: −log10 of the molar value. Like-named read-outs stand apart in the source and are kept apart here.

Target: T1, hT1R1/hT1R3 umami receptor (Homo sapiens, UniProt Q7RTX0+Q7RTX1)
T1 construct: expressed in transfected cells; host or cells: HEK293 derivative stably expressing Gα15, clone I-17, expression induced with mifepristone
T1 sequence (Q7RTX1 21-841): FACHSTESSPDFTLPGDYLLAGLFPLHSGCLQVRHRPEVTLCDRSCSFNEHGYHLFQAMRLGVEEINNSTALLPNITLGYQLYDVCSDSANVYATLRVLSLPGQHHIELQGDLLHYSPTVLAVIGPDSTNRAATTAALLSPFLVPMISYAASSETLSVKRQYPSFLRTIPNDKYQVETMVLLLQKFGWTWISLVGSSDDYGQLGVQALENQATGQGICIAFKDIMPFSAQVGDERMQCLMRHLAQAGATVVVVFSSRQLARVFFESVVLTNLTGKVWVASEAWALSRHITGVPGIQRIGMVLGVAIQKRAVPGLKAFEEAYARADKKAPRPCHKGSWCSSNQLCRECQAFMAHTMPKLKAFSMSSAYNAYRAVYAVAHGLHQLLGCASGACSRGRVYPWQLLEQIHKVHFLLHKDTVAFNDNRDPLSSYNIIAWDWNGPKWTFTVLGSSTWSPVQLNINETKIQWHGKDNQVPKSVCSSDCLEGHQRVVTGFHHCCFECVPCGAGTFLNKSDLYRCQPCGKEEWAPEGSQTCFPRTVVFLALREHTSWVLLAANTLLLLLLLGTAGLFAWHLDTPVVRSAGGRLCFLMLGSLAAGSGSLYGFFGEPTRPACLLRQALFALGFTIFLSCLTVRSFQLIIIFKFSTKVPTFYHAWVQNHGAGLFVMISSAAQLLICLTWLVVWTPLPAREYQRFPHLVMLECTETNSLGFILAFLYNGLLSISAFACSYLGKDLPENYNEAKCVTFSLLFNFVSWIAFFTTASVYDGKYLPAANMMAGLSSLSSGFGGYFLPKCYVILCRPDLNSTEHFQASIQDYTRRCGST
T1 sequence (Q7RTX0 21-852): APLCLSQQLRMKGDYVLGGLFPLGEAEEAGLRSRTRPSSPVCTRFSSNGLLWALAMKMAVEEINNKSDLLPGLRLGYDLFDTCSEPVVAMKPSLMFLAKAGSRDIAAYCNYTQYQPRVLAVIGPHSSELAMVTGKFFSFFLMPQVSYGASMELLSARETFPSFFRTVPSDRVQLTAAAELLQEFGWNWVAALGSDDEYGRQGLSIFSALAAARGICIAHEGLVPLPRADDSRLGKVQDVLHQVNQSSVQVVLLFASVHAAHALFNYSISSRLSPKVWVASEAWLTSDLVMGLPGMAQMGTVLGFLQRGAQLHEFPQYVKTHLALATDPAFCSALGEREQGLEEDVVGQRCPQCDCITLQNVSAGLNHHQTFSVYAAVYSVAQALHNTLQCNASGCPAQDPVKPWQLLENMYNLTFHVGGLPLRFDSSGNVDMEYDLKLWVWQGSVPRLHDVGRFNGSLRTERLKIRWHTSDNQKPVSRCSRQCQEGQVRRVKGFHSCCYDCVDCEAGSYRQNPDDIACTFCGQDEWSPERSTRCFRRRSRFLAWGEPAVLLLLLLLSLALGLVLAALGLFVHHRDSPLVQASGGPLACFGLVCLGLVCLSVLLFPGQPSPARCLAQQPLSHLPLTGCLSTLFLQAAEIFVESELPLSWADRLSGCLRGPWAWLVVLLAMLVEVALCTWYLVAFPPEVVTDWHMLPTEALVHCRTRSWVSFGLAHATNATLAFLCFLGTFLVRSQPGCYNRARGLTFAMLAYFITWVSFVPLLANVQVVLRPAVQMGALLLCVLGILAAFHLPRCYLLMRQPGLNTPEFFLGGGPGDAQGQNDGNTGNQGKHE
Test: In vitro hT1R1/hT1R3 umami taste receptor activation assay (FLIPR, dose response)
Type: cell-based
Excerpt: In order to identify new savory flavoring agents and enhancers, including compounds with savory agonist and enhancer activities (dual activity), the compounds of Formula (I) were screened in primary assays and secondary assays including compound dose response and enhancement assay. In a primary assay for potential ability to modulate umami taste, amide compounds of Formula (I) that can be either savory flavoring agents in their own right or flavor enhancers of MSG are identified and scores of their activities are given as percentage of the maximum MSG intensity (%). In compound dose response, an EC50 is calculated to reflect the potency of the compound as a savory agonist or enhancer.
An HEK293 cell line derivative (See e.g., Chandrashekar, et al., Cell (2000) 100: 703-711) which stably expresses Gα15 and hT1R1/hT1R3 under an inducible promoter (see WO 03/001876 A2) was used to identify compounds with savory tasting properties.
For dose-responses analysis, stimuli were presented in duplicates at 10 different concentrations ranging from 1.5 nM to 30 μM. Activities were normalized to the response obtained with 60 mM monosodium glutamate, a concentration that elicits maximum receptor response. […] Identical results were obtained when analyzing the dose-response data using commercially available software for non-linear regression analysis such as GraphPad PRISM (San Diego, Calif.).

[1] = Table A, Umami Amides, read-out: Umami EC50
[2] = Table D, Umami Acrylamides, read-out: Umami EC50
[3] = read-out: EC50 for activation of a hT1R1/hT1R3 umami receptor expressed in an HEK293 cell line
[4] = Table C, Umami Ureas, read-out: Umami EC50

| SMILES | pEC50 [1] | pEC50 [3] | other results |
| --- | --- | --- | --- |
| CCCC(CCC)NC(=O)c1cc2cccc(OC)c2o1 [Example A130, N-(heptan-4-yl)-7-methoxybenzofuran-2-carboxamide] | 6.80 |  |  |
| COC(=O)[C@@H](CC(C)C)NC(=O)/C=C/c1ccc(OC)cc1 [Example D2, (R,E)-methyl 2-(3-(4-methoxyphenyl)acrylamido)-4-methylpentanoate] |  |  | pEC50 [2]: 6.49 |
| COC(=O)[C@@H](CC(C)C)NC(=O)c1cc2cc(Cl)ccc2o1 [Example 32] |  | 6.09 |  |
| CCCC(CCC)NC(=O)c1ccc(CC)cc1 [Example A71, 4-ethyl-N-(heptan-4-yl)benzamide] | 6.47 |  |  |
| CCCC(CCC)NC(=O)c1cnc(C)c(C)n1 [Example 95, 5,6-dimethylpyrazine-2-carboxylic acid (1-propylbutyl)amide] |  | 6.00 |  |
| COC(=O)[C@@H](CC(C)C)NC(=O)c1ccc2oc(C)nc2c1 [Example A28, (R)-4-Methyl-2-[(2-methyl-benzooxazole-5-carbonyl)-amino]-pentanoic acid methyl ester] | 5.77 |  |  |
| CCCC(CCC)NC(=O)c1ccc(C)nc1Cl [Example 96, 2-chloro-N-(heptan-4-yl)-6-methylnicotinamide] |  | 5.41 |  |
| CCCC(CCC)NC(=O)c1ccc(OCC)c(C)c1 [Example 56, 4-ethoxy-N-(heptan-4-yl)-3-methylbenzamide] |  | 6.77 |  |
| CCCC(CCC)NC(=O)c1ccc2ncoc2c1 [Example A29, N-(heptan-4-yl)benzo[d]oxazole-6-carboxamide] | 5.72 |  |  |
| COC(=O)c1ccc(CNC(=O)C(=O)NCCc2ccccn2)cc1 [Example 141, N-((4-Methoxycarbonylphenyl)methyl)-N′-(2-(pyridin-2-yl)ethyl)oxalamide] |  | 5.44 |  |
| CCCC(CCC)NC(=O)c1ccc(O)c(C)c1 [Example 58, 4-hydroxy-3-methyl-N-(1-propyl-butyl)-benzamide] |  | 6.04 |  |
| CSc1ccc(C(=O)NC(C(C)C)C(C)C)cc1C [Example A88, N-(2,4-dimethylpentan-3-yl)-3-methyl-4-(methylthio)benzamide] | 6.26 |  |  |
| CCCC(CCC)NC(=O)c1cc2c(cc1C)OCO2 [Example 17, N-(heptan-4-yl)-6-methylbenzo[d][1,3]dioxole-5-carboxamide] |  | 6.96 |  |
| CCCC(NC(=O)Nc1ccc2c(c1)OCO2)C(C)C (stereo not drawn) [Example C28, 1-(benzo[d][1,3]dioxol-5-yl)-3-(2-methylhexan-3-yl)urea] |  |  | pEC50 [4]: 6.24 |
| CCCC(CCC)NC(=O)c1ccc2ncsc2c1 [Example A22, Benzothiazole-6-carboxylic acid (1-propyl-butyl)-amide] | 5.80 |  |  |
| CCOc1ccc(/C=C/C(=O)N[C@@H](COC)CC(C)C)cc1 [Example D8, (R,E)-3-(4-ethoxyphenyl)-N-(1-methoxy-4-methylpentan-2-yl)acrylamide] |  |  | pEC50 [2]: 6.03 |
| CCCC(CC(C)C)NC(=O)c1ccc(OC)c(C)c1 (stereo not drawn) [Example 52, 4-methoxy-3-methyl-N-(2-methylheptan-4-yl)benzamide] |  | 7.00 |  |
| Cc1ccoc1C(=O)NC1CCCC(C)C1C (stereo not drawn) [Example A32, N-(2,3-dimethylcyclohexyl)-3-methylfuran-2-carboxamide] | 5.94 |  |  |

| SMILES | pEC50 [1] | pEC50 [3] | other results |
| --- | --- | --- | --- |
| O=C(NCc1ccc(OC(F)(F)F)cc1)c1ccsc1 [Example 107, Thiophene-3-carboxylic acid 4-trifluoromethoxy-benzylamide] |  | 5.66 |  |
| COC(=O)[C@@H](CC(C)C)NC(=O)c1cc(OC)nc(OC)c1 [Example 93, (R)-methyl 2-(2,6-dimethoxyisonicotinamido)-4-methylpentanoate] |  | 5.72 |  |
| CCC(NC(=O)c1ccc(OC)c(C)c1)C(C)C (stereo not drawn) [Example A58, 4-methoxy-3-methyl-N-(2-methylpentan-3-yl)benzamide] | 6.70 |  |  |
| CC(NC(=O)Nc1ccccc1Cl)C1CCCCC1 (stereo not drawn) [Example C5, 1-(2-chlorophenyl)-3-(1-cyclohexylethyl)urea] |  |  | pEC50 [4]: 6.08 |
| COC(=O)[C@@H](CC(C)C)NC(=O)c1cc(C)c(OC)c(C)c1 [Example A95, (R)-methyl 2-(4-methoxy-3,5-dimethylbenzamido)-4-methylpentanoate] | 6.13 |  |  |
| CCCC(CCC)NC(=O)c1ccc(OC)c(C)c1 [Example A61, N-(heptan-4-yl)-4-methoxy-3-methylbenzamide] | 6.66 |  |  |
| CC[C@@H](C)[C@@H](NC(=O)c1ccc2c(c1)OCO2)C(=O)OC [Example A42, (2R,3R)-methyl 2-(benzo[d][1,3]dioxole-5-carboxamido)-3-methylpentanoate] | 6.46 |  |  |
| O=C(NCCc1ccccn1)C(=O)NCc1cc2ccccc2s1 [Example 150, N-(Benzo[b]thiophen-2-ylmethyl)-N′-(2-(pyridin-2-yl)ethyl)oxalamide] |  | 6.13 |  |
| CCCC(CC)NC(=O)c1ccc2c(c1)OCO2 (stereo not drawn) [Example A53, N-(hexan-3-yl)benzo[d][1,3]dioxole-5-carboxamide] | 5.74 |  |  |
| CCCC(CCC)NC(=O)c1ccc2c(c1)OC(C(C)C)O2 (stereo not drawn) [Example 21, N-(heptan-4-yl)-2-isopropylbenzo[d][1,3]dioxole-5-carboxamide] |  | 4.94 |  |
| COC(=O)[C@@H](CC(C)C)NC(=O)c1oc2ccccc2c1C [Example 33, (R)-methyl 4-methyl-2-(3-methylbenzofuran-2-carboxamido)pentanoate] |  | 5.93 |  |
| CCC(CC)NC(=O)/C=C/c1ccc(OCCO)cc1 [Example 76, N-(1-Ethyl-propyl)-3-[4-(2-hydroxy-ethoxy)-phenyl]-acrylamide] |  | 5.24 |  |
| CCCC(CC(C)C)NC(=O)/C=C/c1ccc(OC)cc1 (stereo not drawn) [Example 79, 3-(4-Methoxy-phenyl)-N-(3-methyl-1-propyl-butyl)-acrylamide] |  | 5.74 |  |
| CCCC(CC(C)C)NC(=O)c1ccc2oc(C)nc2c1 (stereo not drawn) [Example A23, 2-methyl-N-(2-methylheptan-4-yl)benzo[d]oxazole-5-carboxamide] | 6.42 |  |  |
| COc1ccc(/C=C/C(=O)NC(C(C)C)C(C)C)cc1 [Example D1, (E)-N-(2,4-dimethylpentan-3-yl)-3-(4-methoxyphenyl)acrylamide] |  |  | pEC50 [2]: 6.54 |
| O=C(NC1CCc2ccccc21)c1ccc2c(c1)OCO2 (stereo not drawn) [Example 118, Benzo[1,3]dioxole-5-carboxylic acid indan-1-ylamide] |  | 5.92 |  |
| COC(=O)[C@@H](CC(C)C)NC(=O)c1cc2cc(C)ccc2[nH]1 [Example 36, (R)-methyl 4-methyl-2-(5-methyl-1H-indole-2-carboxamido)pentanoate] |  | 5.18 |  |
| COC(=O)C(CC(C)C)NC(=O)c1cc2ccccc2s1 (stereo in doubt) [Example A4, 2-[(Benzo[b]thiophene-2-carbonyl)-amino]-4-methyl-pentanoic acid methyl ester] | 6.40 |  |  |
